This experiment deals with T1, Kir3.1 and Kir3.4 (IKACh).
T1 construct: gene KCNJ3; heterotetramer
Kind of experiment: whole-cell patch clamp, HEK293, block of Ba-sensitive current. It is filed as cell-based. The settings on record: -140 mV step from -20 mV holding; about 24 °C; bath pH 7.4, 50 mM KCl; pipette 0.1 mM GTP; Hill slope -0.48. Background: Patch clamp records ionic current or voltage across a cell membrane.

Each structure is given as a SMILES string.

Turning to `CCN(CC)CCCC(C)Nc1ccnc2cc(Cl)ccc12` (stereo not shown) [chloroquine], 1200 nM corresponded to half-maximal inhibition (IC50).

These data come from paper PMC6890839, “The Antimalarial Chloroquine Reduces the Burden of Persistent Atrial Fibrillation” (Frontiers in Pharmacology, 2019).
